Measured values published in patent publication US20260053747A1, “RECONSTITUTED HIGH-DENSITY LIPOPROTEIN NANOPARTICLES COMPRISING CHOLESTEROL” (MEPSGEN CO., LTD., priority 2023, published 2026).

How the values were obtained:
[1] = system: LDLR mRNA expression in GBM #P1 and GBM #P2 cells; assay: qPCR of LDLR mRNA in patient-derived GBM cells; type: cell-based; conditions: GBM #P1 and GBM #P2, 2 μg/mL of 24HC, 4 hours
Protocol: GBM #P1 and GBM #P2 cells were treated with 24HC, 24HC-containing rHDL nanoparticles, and rHDL nanoparticles, and the changes in LDLR and ABCA1 mRNA expression were confirmed using qPCR. GBM #P1 and GBM #P2 cells were seeded at 0.5×10^5 cells/well in a 6-well cell culture plate and were cultured for 24 hours. The cells were cultured under the conditions as described in Example 12 above. GBM #P1 and GBM #P2 cells were treated with 24HC and 24HC-containing rHDL nanoparticles at a concentration of 2 μg/mL of 24HC for 4 hours. In the case of rHDL nanoparticles, the amount of apolipoprotein E3 in the 24HC-containing rHDL nanoparticles was quantified using a BCA assay, and then the same amount of apolipoprotein E3 corresponding to the 24HC treatment concentration was calculated prior to treatment with rHDL nanoparticles.

LN229 cells = assay: GBM cell survival rate in LN229; type: cell-based; conditions: Homo sapiens, LN-229, 0-50 μg/mL, 48 hours
Protocol: (§1) In order to determine whether cholesterol depletion caused by intracellular cholesterol efflux inhibits GBM cell proliferation and induces cell death, U87MG and LN229 cells were treated with rHDL nanoparticles, 24HC, and 24HC-containing rHDL nanoparticles, and the cell survival rate was evaluated. After 24 hours of incubation, the cells were treated with the nanoparticles according to the present invention at concentrations of 0-50 μg/mL, and the cell survival rate (%) was evaluated after 48 hours of incubation.

U87MG cells = assay: GBM cell survival rate in U87MG; type: cell-based; conditions: Homo sapiens, U-87 MG, 0-50 μg/mL, 48 hours
Protocol: as §1

[2] = system: ABCA1 mRNA expression in LN229 cells; assay: qPCR of ABCA1 mRNA in LN229; type: cell-based; conditions: LN229, 5 μg/mL of 24HC, 4 hours
Description: (§2) 24HC is an endogenous LXR agonist and is known to induce the expression of genes responsible for cholesterol efflux, such as ABCA1 and ABCG1, thereby inducing intracellular cholesterol efflux, and to inhibit exogenous cholesterol uptake by downregulating LDLR. Accordingly, we anticipated that treatment of GBM with 24HC-containing rHDL nanoparticles would result in a greater decrease in LDLR expression and an increase in ABCA1 expression due to the action of 24HC, compared to the treatment with 24HC alone. Therefore, U87MG and LN229 cells were treated with 24HC, 24HC-containing rHDL nanoparticles, and rHDL nanoparticles, and the changes in LDLR and ABCA1 mRNA expression were confirmed using qPCR (real-time polymerase chain reaction). U87MG and LN229 cells were seeded at 0.5×10^5 cells/well in a 6-well cell culture plate and cultured for 24 hours under the conditions described in Example 1 above. In qPCR experiments, U87MG cells were treated with 1 μg/mL of 24HC for 24 hours, and LN229 cells were treated with 5 μg/mL of 24HC for 24 hours, and changes in LDLR mRNA were confirmed. […] In the case of rHDL nanoparticles, the amount of apolipoprotein E3 in the 24HC-containing rHDL nanoparticles was quantified using a BCA assay, and the same amount of apolipoprotein E3 corresponding to the 24HC treatment concentration was calculated prior to treatment with rHDL nanoparticles.

[3] = system: LDLR mRNA expression in LN229 cells; assay: qPCR of LDLR mRNA in LN229; type: cell-based; conditions: LN229, 5 μg/mL of 24HC, 24 hours
Description: as §2

[4] = system: ABCA1 mRNA expression in U87MG cells; assay: qPCR of ABCA1 mRNA in U87MG; type: cell-based; conditions: 1 μg/mL of 24HC, 4 hours
Description: as §2

iBMECs = assay: Toxicity (cell survival rate) in iBMECs; type: cell-based, human; conditions: up to 5 μg/mL, 8 hours
Protocol: (§3) The toxicity of 24HC-containing rHDL nanoparticles toward hBMECs, iBMECs, pericytes, and normal brain astrocytes, which constitute the BBB until the nanoparticles penetrate the BBB and reach the GBM, was evaluated. hBMECs, iBMECs, pericytes, and astrocytes were seeded into a 96-well cell culture plate. Pericytes were cultured in PM medium, astrocytes were cultured in the same culture medium as described in Example 1, and hBMEC and iBMEC cells were cultured in the same culture medium as described in Example 6. After 24 hours of incubation, the cells were treated with the nanoparticles according to the present invention at concentrations ranging from Oto 5 μg/mL, and the cell survival rate (%) was evaluated after 8 hours of incubation. […] In addition, it was confirmed that the nanoparticles are not toxic to normal brain cells other than GBM.

hBMECs = assay: Toxicity (cell survival rate) in hBMECs; type: cell-based, human; conditions: up to 5 μg/mL, 8 hours
Protocol: as §3

GBM #P2 cells = assay: Cell viability in patient-derived GBM #P2; type: cell-based; conditions: 0-50 μg/mL, 48 hours
Protocol: (§4) In order to determine whether cholesterol depletion due to intracellular cholesterol efflux inhibits GBM cell proliferation and induces cell death, GBM #P1 and GBM #P2 cells were treated with rHDL nanoparticles, 24HC, and 24HC-containing rHDL nanoparticles, and cell viability was evaluated. After 24 hours of incubation, the cells were treated with 0-50 μg/mL of the nanoparticles, and the cell viability (%) was assessed after 48 hours of incubation.

GBM #P1 cells = assay: Cell viability in patient-derived GBM #P1; type: cell-based; conditions: 0-50 μg/mL, 48 hours
Protocol: as §4

normal brain astrocytes = assay: Toxicity (cell survival rate) in astrocytes; type: cell-based; conditions: up to 5 μg/mL, 8 hours
Protocol: as §3

[5] = system: LDLR mRNA expression in U87MG cells; assay: qPCR of LDLR mRNA in U87MG; type: cell-based; conditions: 1 μg/mL of 24HC, 24 hours
Description: as §2

pericytes = assay: Toxicity (cell survival rate) in pericytes; type: cell-based; conditions: up to 5 μg/mL, 8 hours
Protocol: as §3

[6] = system: ABCA1 protein in PDAC cells; conditions: PDAC cells (Raimund O, Life Sci Alliance, 2022); cited from earlier work

SMILES | Level of LDLR mRNA expression, lower compared to the control group [1] | IC50 (LN229 cells) [µg/mL] | IC50 (U87MG cells) [µg/mL] | Level of ABCA1 mRNA expression compared to the control group [2] | Level of LDLR mRNA expression compared to the control group [3] | Level of ABCA1 mRNA expression compared to the control group [4] | Toxicity in iBMECs (iBMECs) | Toxicity in hBMECs (hBMECs) | IC50 (GBM #P2 cells) [µg/mL] | IC50 (GBM #P1 cells) [µg/mL] | Toxicity in astrocytes (normal brain astrocytes) | Level of LDLR mRNA expression compared to the control group [5] | Toxicity in pericytes (pericytes) | Expression of the ABCA1 protein [6]
CC(C)C(O)CC[C@@H](C)[C@H]1CC[C@H]2[C@@H]3CC=C4C[C@@H](O)CC[C@]4(C)[C@H]3CC[C@]12C (some centres unmarked) [Formulation 24HC, 24-hydroxycholesterol] | significantly reduced | 12.8 | 6.7 | increased | decreased | increased | none of the rHDL nanoparticles, 24HC, or 24HC-containing rHDL nanoparticles exhibited toxicity | none of the rHDL nanoparticles, 24HC, or 24HC-containing rHDL nanoparticles exhibited toxicity | 13.8 | 40.2 | none of the rHDL nanoparticles, 24HC, or 24HC-containing rHDL nanoparticles exhibited toxicity | decreased | none of the rHDL nanoparticles, 24HC, or 24HC-containing rHDL nanoparticles exhibited toxicity | –
O=S(=O)(c1ccccc1)N(CC(F)(F)F)c1ccc(C(O)(C(F)(F)F)C(F)(F)F)cc1 [Formulation T0901317] | – | – | – | – | – | – | – | – | – | – | – | – | – | increased the expression of the ABCA1 protein
